Columns and labels:
large crabgrass = experiment: Test B pre-/postemergence herbicide test; type: in vivo, Digitaria sanguinalis
How it was run: (§1)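 Herbicidal effect was judged by eye on a 0–100 scale after plants stood 13 to 15 days in the greenhouse following pre- or postemergence treatment with surfactant-containing formulations.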

[1] = tested on: small flower umbrella sedge; experiment: Test B flooded paddy test; type: in vivo, Cyperus difformis; settings: 1000 g ai/ha, visual rating, scale 0 to 100 (0 no effect, 100 complete control), 13 to 15 days
How it was run: (§2)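 Plants grow to 1- to 4-leaf stage (2–18 cm) for postemergence spraying, or to 2-leaf stage for the paddy test. Formulated compound is applied. Greenhouse holding lasts 13–15 days. Response is scored visually relative to controls, 0 no effect to 100 complete control; a dash means no result.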

blackgrass = experiment: Test B postemergence herbicide test; type: in vivo, Alopecurus myosuroides; settings: scale 0 (no effect) to 100 (complete control)
How it was run: as §2

wild oat = experiment: Test B postemergence herbicide test; type: in vivo, Avena fatua; settings: scale 0 (no effect) to 100 (complete control)
How it was run: (§3)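 Formulated test chemicals went onto postemergence plants measuring 2 to 18 cm, at one to four leaves. For the paddy assay, species had reached two leaves. Scoring took place 13–15 days later by eye, relative to untreated plants, using 0 for no effect up to 100 for full control.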

barnyardgrass = experiment: Test B pre-/postemergence herbicide test; type: in vivo, Echinochloa crus-galli
How it was run: (§4)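 Species tested were Echinochloa crus-galli, Ipomoea coccinea, Xanthium strumarium and Oryza sativa, treated both before emergence and at the 1- to 4-leaf stage; rice and barnyardgrass were also tested under flooding at 2 leaves. Greenhouse incubation lasted 13–15 days before visual 0–100 scoring.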

wheat = experiment: Test B postemergence herbicide test; type: in vivo, Triticum aestivum; set-up: key to Wheat plant response rating: 0 = no effect, 100 = complete control; settings: scale 0 (no effect) to 100 (complete control)
How it was run: as §3

velvetleaf = experiment: Test B pre-/postemergence herbicide test; type: in vivo, Abutilon theophrasti
How it was run: as §1

ducksalad = experiment: Test B flooded paddy test; type: in vivo, Heteranthera limosa; settings: 1000 g ai/ha, visual rating, scale 0 to 100 (0 no effect, 100 complete control), 13 to 15 days
How it was run: as §2

corn = experiment: Test B pre-/postemergence herbicide test; type: in vivo, Zea mays
How it was run: as §1

Surinam grass = experiment: Test B pre-/postemergence herbicide test; type: in vivo, Urochloa decumbens
How it was run: as §1

pigweed = experiment: Test B pre-/postemergence herbicide test; type: in vivo, Amaranthus retroflexus
How it was run: as §1

cocklebur = experiment: Test B pre-/postemergence herbicide test; type: in vivo, Xanthium strumarium
How it was run: as §4

giant foxtail = experiment: Test B pre-/postemergence herbicide test; type: in vivo, Setaria faberi
How it was run: as §1

lambsquarters = experiment: Test B pre-/postemergence herbicide test; type: in vivo, Chenopodium album
How it was run: as §1

rice = experiment: Test B flooded paddy test; type: in vivo, Oryza sativa; settings: 1000 g ai/ha, visual rating, scale 0 to 100 (0 no effect, 100 complete control), 13 to 15 days
How it was run: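 Treated at 2-leaf (paddy) or 1–4-leaf, 2–18 cm (postemergence); greenhouse 13–15 d; visual score vs control, 0 none to 100 complete control; dash = not tested.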

[2] = 500 g ai/ha, visual rating 0-100, 0 no effect, 100 complete control, preemergence
[3] = Postemergence, 500 g ai/ha, visual rating after 13 to 15 days, scale 0 (no effect) to 100 (complete control)
[4] = postemergence, 125 g ai/ha, visual rating, scale 0 (no effect) to 100 (complete control)
[5] = preemergence, 125 g ai/ha, 0 to 100 scale, 0 is no effect, 100 is complete control
[6] = Postemergence, 500 g ai/ha, visual rating after 13 to 15 days
[7] = postemergence, 125 g ai/ha, visual rating

CCC(=NO)c1cccc(NC(=O)c2cc(C(C)(C)C)nn2C)c1 [Compound 118] was tested, and the “Plant response rating, Crabgrass, Large” value (large crabgrass; [2]) was 100, the “Plant response rating, Crabgrass, Large” value (large crabgrass; [3]) was 30 and the “Crabgrass, Large plant response rating” value (large crabgrass; [4]) was 20. For the same molecule, the “Plant response rating, Crabgrass, Large” value (large crabgrass; [5]) was 90, the “Sedge, Umbrella plant response rating” value [1] was 80 and the “Plant response rating, Blackgrass” value (blackgrass; [6]) was 10. The “Blackgrass plant response rating” value (blackgrass; [7]) was 0, the “Plant response rating, Oat, Wild” value (wild oat; [6]) was 20 and the “Oat, Wild plant response rating” value (wild oat; [7]) was 20. The “Plant response rating, Barnyardgrass” value (barnyardgrass; [2]) was 90, the “Plant response rating, Barnyardgrass” value (barnyardgrass; [3]) was 30 and the “Barnyardgrass plant response rating” value (barnyardgrass; [4]) was 10. For the same molecule, the “Plant response rating, Barnyardgrass” value (barnyardgrass; [5]) was 10, the “Plant response rating, Wheat” value (wheat; [6]) was 10 and the “Wheat plant response rating” value (wheat; [7]) was 10. The “Plant response rating, Velvetleaf” value (velvetleaf; [2]) was 10, the “Plant response rating, Velvetleaf” value (velvetleaf; [3]) was 40 and the “Velvetleaf plant response rating” value (velvetleaf; [4]) was 20. For the same molecule, the “Plant response rating, Velvetleaf” value (velvetleaf; [5]) was 0, the “Ducksalad plant response rating” value (ducksalad) was 80 and the “Plant response rating, Corn” value (corn; [2]) was 10. The “Plant response rating, Corn” value (corn; [3]) was 40, the “Corn plant response rating” value (corn; [4]) was 20 and the “Plant response rating, Corn” value (corn; [5]) was 0. The “Plant response rating, Surinam Grass” value (Surinam grass; [2]) was 50, the “Plant response rating, Surinam Grass” value (Surinam grass; [3]) was 40 and the “Surinam Grass plant response rating” value (Surinam grass; [4]) was 40. For the same molecule, the “Plant response rating, Surinam Grass” value (Surinam grass; [5]) was 10, the “Plant response rating, Pigweed” value (pigweed; [2]) was 90 and the “Plant response rating, Pigweed” value (pigweed; [3]) was 100. The “Pigweed plant response rating” value (pigweed; [4]) was 60, the “Plant response rating, Pigweed” value (pigweed; [5]) was 60 and the “Plant response rating, Cocklebur” value (cocklebur; [2]) was 10. The “Plant response rating, Cocklebur” value (cocklebur; [3]) was 90, the “Cocklebur plant response rating” value (cocklebur; [4]) was 70 and the “Plant response rating, Cocklebur” value (cocklebur; [5]) was 0. For the same molecule, the “Plant response rating, Foxtail, Giant” value (giant foxtail; [2]) was 70, the “Plant response rating, Foxtail, Giant” value (giant foxtail; [3]) was 20 and the “Foxtail, Giant plant response rating” value (giant foxtail; [4]) was 10. The “Plant response rating, Foxtail, Giant” value (giant foxtail; [5]) was 10, the “Plant response rating, Lambsquarters” value (lambsquarters; [2]) was 0 and the “Plant response rating, Lambsquarters” value (lambsquarters; [3]) was 20. The “Lambsquarters plant response rating” value (lambsquarters; [4]) was 0, the “Plant response rating, Lambsquarters” value (lambsquarters; [5]) was 0 and the “Rice plant response rating” value (rice) was 80.

From patent publication US20060069132A1, “Azolecarboxamide herbicides” (priority 2004, published 2006)
